Source: article PMC8411975, “Frag4Lead: growing crystallographic fragment hits by catalog using fragment-guided template docking” (Acta Crystallographica. Section D, Structural Biology, 2021)
Where two headings read alike, the source gives them in different places.

Legend:
[1] = target: T1, endothiapepsin (EP) (Cryphonectria parasitica, UniProt P11838); design: method as in Schiebel, Radeva et al. (2016); conditions: starting fragments, ref Schiebel, Radeva et al. (2016), cited from earlier work; for Kd: read-out: Kd (dissociation constant of the compound from EP)
T1 sequence (P11838 90-419): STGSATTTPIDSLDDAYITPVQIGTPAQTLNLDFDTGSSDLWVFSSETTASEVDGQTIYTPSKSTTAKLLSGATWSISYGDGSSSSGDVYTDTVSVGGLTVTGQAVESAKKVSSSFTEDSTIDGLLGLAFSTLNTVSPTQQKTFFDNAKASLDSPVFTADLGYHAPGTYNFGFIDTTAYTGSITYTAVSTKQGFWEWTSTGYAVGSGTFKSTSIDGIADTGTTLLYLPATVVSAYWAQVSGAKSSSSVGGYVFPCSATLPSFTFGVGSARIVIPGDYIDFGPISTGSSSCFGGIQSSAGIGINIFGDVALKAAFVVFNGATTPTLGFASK

[2] = Solubility noted during ITC sample preparation; type: physicochemical; conditions: ITC buffer, 0.1 M sodium acetate pH 4.6, 3%(v/v) DMSO
Description: (§1) ITC experiments were conducted similarly to the procedure desribed by Schiebel, Radeva et al. (2016[▸]) on a MicroCal ITC200 (Malvern) instrument. All buffer solutions for ITC were prepared with the same batch of buffer as used to isolate the batch of EP. Details of the ITC experiments, including the protein and ligand concentrations for each experiment, are listed in Supplementary Table S2. […] All displacement titrations were conducted as single measurements, except for that of FU5-2 (n = 3). The affinities of the stronger binding follow-up ligands were determined by direct ITC titrations. For this, 1 mM compound in a buffer solution consisting of 0.1 M sodium acetate pH 4.6, 3%(v/v) DMSO was titrated into the same buffer additionally containing 50 µM EP to a final stoichiometry of N = 4.

[3] = Stability of synthesized compound on exposure to air; type: physicochemical; conditions: exposed to air at room temperature over a longer period of time
[4] = target: T1, endothiapepsin (EP); assay: Compound soaking into EP crystals and X-ray crystal structure determination; type: binding; conditions: soaking at 100 mM or supernatant, 16–22 h
Description: The follow-up compounds (a full list, including providers and purities, if known, is given in Supplementary Table S1) were directly dissolved in a soaking solution consisting of 68.2 mM sodium acetate pH 4.6, 68.2 mM ammonium acetate pH 7.0, 16.9%(w/v) PEG 4000, 19.3%(v/v) glycerol, 9.09%(v/v) DMSO to a concentration of 100 mM. For poorly soluble follow-up compounds, crystals were soaked in the supernatant of the solution. After incubation for 16–22 h the crystals were flash-cooled in liquid nitrogen and stored for diffraction data collection.
All data collections were carried out on beamlines BL14.1 and BL14.2 of the BESSY II electron-storage ring operated by the Helmholtz-Zentrum Berlin (HZB; Mueller et al., 2015[▸]). Typically, 360° of data were collected in 0.1° increments using an exposure time of 0.1 s. Data were automatically processed using XDSAPP (Sparta et al., 2016[▸]).
All structures were refined using the automated script fspipeline, which is based on Schiebel, Krimmer et al. (2016[▸]). The starting model was based on PDB entry 4y5l (Schiebel, Krimmer et al., 2016[▸]), from which all ligands and water molecules were removed. Electron-density maps and coordinate files obtained from the automated refinement were inspected manually for each experiment to judge the presence or absence of the expected ligand in the difference electron density. Subsequently, the identified hits were subjected to several rounds of alternating model building in Coot (Emsley et al., 2010[▸]) and refinement in Phenix (Liebschner et al., 2019[▸]) before and after ligand placement. For all follow-up ligands, occupancy refinement was carried out. Refined models and the corresponding electron-density maps were submitted to the PDB under group deposition ID G_1002201.

[5] = target: T1, endothiapepsin (EP); assay: Isothermal titration calorimetry (direct or SAP114-displacement titration) against EP; type: binding; conditions: for LE (ligand efficiency): from ITC Kd; for Kd: read-out: Kd determined by ITC; for fold affinity increase compared with the starting fragment: ITC Kd of follow-up versus Kd of its starting fragment
Description: as §1
The obtained thermogram peaks of all titrations (Supplementary Fig. S4) were integrated with Nitpic 1.1.8 (Keller et al., 2012[▸]). Subsequently, fitting of a single-site binding-model isotherm was performed using SEDPHAT 10.58d (Houtman et al., 2007[▸]). For the errors of the fit, see Supplementary Table S3. […] During the fit, ΔH was corrected for the heat of dilution, which was individually fitted for each experiment. The stoichiometry was arbitrarily fixed at the anticipated stoichiometry of N = 1 as appropriate for the present low c-value titrations (Rühmann et al., 2015[▸]).
Table S2. Details of ITC measurements.
Follow-Up Titration Concentration Ligand Concentration Final Stoichiometry
Compound Type in Cell Concentration in Syringe (Ligand:Protein)
[a] 0.1% (v/v) Tween 20 in s yringe and cell.
Table S3. Fitting statistics for ITC titration curves
Compound Global reduced chi-square[a] local rmsd[a] (B:A) n[c] Kd [µM] (SD)[d]
Isotherm fitting statistics of ITC data, anal yzed vi a SEDPHAT 10.58d (Houtman et al., 2007).
[a] Goodness of fit p arameters (glob al reduced chi-squ are and wei ghted local rmsd)
[b] Stochiometry o f the ligand protein A and t he ligand B at the infl ection point of the
[c] Number of used data points corresponding to injections of the ITC ex periment

SMILES | LE (ligand efficiency, binding energy per non-H atom) [1] | Kd [1] | binding observed in crystal structure after soaking [4] | LE (ligand efficiency) [5] | Kd [5] | also measured
NC1=NCc2ccccc21 [F005] | 0.38 kcal mol^−1 per atom | 1700 µM |  |  |  | 
O=C(CN1CCCCC1)Nc1ccc2c(c1)OCO2 [F041] | 0.22 kcal mol^−1 per atom | 900 µM |  |  |  | 
Cc1cc(CN)n(C)n1 [F058] | 0.31 kcal mol^−1 per atom | 8800 µM |  |  |  | 
NCc1ccc(-c2ccco2)nc1 [F066] | 0.35 kcal mol^−1 per atom | 400 µM |  |  |  | 
N=C(N)SCc1ccc(Cl)cc1 [F290] | 0.45 kcal mol^−1 per atom | 100 µM |  |  |  | 
NC1=N/C(=N\Nc2ccccc2)c2ccccc21 [FU5-1] |  |  |  |  |  | solubility [2]: poor solubility; stability of the compound [3]: decomposition
N=C1N=C(N)c2ccccc21 [FU5-2] |  |  | retained the binding pose of F005 | 0.37 kcal mol^−1 per atom | 970 µM | 
NC1=NC(=O)c2ccccc21 [FU5-3] |  |  | retained the binding pose of F005 | 0.39 kcal mol^−1 per atom | 740 µM | 
N=C(N)N/N=C1\N=C(N)c2ccccc21 [FU5-4] |  |  |  | 0.31 kcal mol^−1 per atom | 400 µM | 
Cc1noc(C)c1CN(C)Cc1cc2n(n1)CCN(c1cc(N)ncn1)C2 [FU58-1] |  |  | observed in crystal structures | 0.17 kcal mol^−1 per atom | 450 µM | fold affinity increase compared with the starting fragment [5]: about 20 fold
CN(C)CCNC(=O)c1cc2n(n1)CCN(c1ccnc(N)n1)C2 [FU58-2] |  |  | observed in crystal structures |  |  | 
CSc1ccc(CN(CCO)Cc2cc(C)nn2C)cc1 [FU58-3] |  |  | observed in crystal structures | 0.19 kcal mol^−1 per atom | 1040 µM | 
CSc1ccc(CNCCO)cc1 [FU58-3b, 2-{[4-(methylthio)benzyl]amino}ethan-1-ol] |  |  | identified in the electron density |  |  | 
Oc1nc(-c2ccco2)ccc1CN(Cc1ccccn1)C1CC1 [FU66-1] |  |  | observed in the crystal structure | 0.21 kcal mol^−1 per atom | 160 µM | 
N=C(N)SCc1ccc(CSC(=N)N)cc1 [FU290-1] |  |  |  | 0.44 kcal mol^−1 per atom | 7.2 µM | fold affinity increase compared with the starting fragment [5]: 14 fold
CC(SC(=N)N)c1ccc(Cl)cc1 (stereo not shown) [FU290-2] |  |  |  | 0.40 kcal mol^−1 per atom | 160 µM | 
